Experimental data: patent publication US20240237641A1, “COMPOSITION COMPRISING GRAPHENE FOR THE TREATMENT OF TEXTILE ARTICLES AND TEXTILE ARTICLES TREATED” (DIRECTA PLUS S.P.A., priority 2021, published 2024)

Key:
Sars-CoV-2 = test: Test of inhibition of Sars-CoV-2 viral infection of Vero E6 cells; type: cell-based; conditions: Severe acute respiratory syndrome coronavirus 2, Vero C1008, read-out: viable cells
Protocol: The substances were evaluated in the concentration ranges from […]. With the same concentration (0.015 mg/mL) maximum efficacy was obtained with Curcumin (94% viable cells), followed by Emodin (89% viable cells), α-Hederine (71% viable cells) and Thymoquinone (73% viable cells).

Vero E6 cells = conditions: substances solubilized in DMSO, luminescence kit for quantification of viable cells
From the text: The substances were solubilized in dimethyl sulfoxide (DMSO) and renal epithelial cells (Vero E6 ATCC® CRL-1586™) were used for the test. The experimental procedure used was divided into 3 steps: • 1) Evaluation of cytotoxicity (amount of dead cells) of DMSO on Vero E6 cells compared to the negative control, i.e., compared to Vero E6 cells not treated with DMSO; • 2) Evaluation of cytotoxicity of the single substances dissolved in DMSO on Vero E6 cells compared to the negative control, i.e., compared to Vero E6 cells not treated with DMSO; • 3) Evaluation of inhibition of the infection of Vero E6 cells by Sars-Cov-2 (around 10^5 viral particles/mL) compared to the positive control, i.e., Vero E6 cells infected but not treated with any phytotherapeutic substance.
The substances were administered to Vero E6 cells at different concentrations gradually decreasing towards lower concentrations. Cytotoxicity was evaluated using a luminescence kit for the quantification of viable cells.

| SMILES | viability at 15 µg/mL (Sars-CoV-2) [%] | concentrations tolerated by the cells (Vero E6 cells) [ng/mL] |
| --- | --- | --- |
| COc1cc(/C=C/C(=O)/C=C(O)/C=C/c2ccc(O)c(OC)c2)ccc1O [curcumin] | 94 | 15000 |
| CC1=CC(=O)C(C(C)C)=CC1=O [thymoquinone] | 73 | 7500 |
| Cc1cc(O)c2c(c1)C(=O)c1cc(O)cc(O)c1C2=O [emodin] | 89 | 60000 |
| C[C@@H]1O[C@@H](O[C@H]2[C@H](O[C@H]3CC[C@@]4(C)[C@@H](CC[C@]5(C)[C@@H]4CC=C4[C@@H]6CC(C)(C)CC[C@]6(C(=O)O)CC[C@]45C)[C@]3(C)CO)OC[C@@H](O)[C@@H]2O)[C@H](O)[C@H](O)[C@H]1O [α-hederine] | 71 | 7500 |
